One assay deals with HIPK2 (Homo sapiens (Human), UniProt Q9H2X6). The assay is described as follows: HIPK2 enzymatic activity inhibition (Z'-LYTE). Type of assay: biochemical. As for the experimental part: HIPK2 Enzymatic Activity Inhibition: Determination of IC50 Values for Selected Compounds
The half maximal inhibitory concentration (IC50) with respect to HIPK2 inhibition was determined for the compounds of the invention by using Z′-LYTE™ from ThermoFisher Scientific's SelectScreen™ Biochemical Kinase Profiling Service (Waltham, MA). Compounds were screened in 1% DMSO (final) in the well. For 10 point titrations, 3-fold serial dilutions were conducted from the starting concentration. The 2×HIPK2/Ser/Thr 09 mixture was prepared in 50 mM HEPES pH 7.5, 0.01% BRIJ-35, 10 mM MgCl2, 1 mM EGTA.
100 nL of 100× test compound in 100% DMSO, 2.4 uL of kinase buffer (50 mM HEPES pH 7.5, 0.01% BRIJ-35, 10 mM MgCl2, 1 mM EGTA), 5 uL of 2×HIPK2/Ser/Thr 09 mixture, and 2.5 uL of 4×ATP solution were mixed and agitated for 30 seconds. Then the Kinase Reaction was incubated at room temperature for 60 minutes. […] After 30 second of plate shake, the reaction plate was incubated for another 60 min at room temperature. Then the plate was read on a fluorescence plate reader (CLARIOstar, BMG Labtech, Germany) as plate reader and data was analyzed using XLfit from IDBS.

The next assay deals with CSNK2A1 (CK2 alpha 1) (Homo sapiens (Human), UniProt P68400). The assay is described as follows: CK2 alpha 1 enzymatic activity inhibition (Z'-LYTE). Type of assay: biochemical. To be noted: read-out: CK2a IC50. The method, then:
CK2 Alpha 1 Enzymatic Activity Inhibition: Determination of IC50 Values for Selected Compounds
The half maximal inhibitory concentration (IC50) with respect to CK2 alpha 1 inhibition was determined for the compounds of the invention by using Z′-LYTE™ from ThermoFisher Scientific's SelectScreen™ Biochemical Kinase Profiling Service (Waltham, MA). Compounds were screened in 1% DMSO (final) in the well. For 10 point titrations, 3-fold serial dilutions were conducted from the starting concentration. The 2×CSNK2A1 (CK2 alpha 1)/Ser/Thr 11 mixture is prepared in 50 mM HEPES pH 7.5, 0.01% BRIJ-35, 10 mM MgCl2, 1 mM EGTA. The black 384-well plate (Corning Cat. #4514) were used for the assay. 100 nL of 100× test compound in 100% DMSO, 2.4 uL of kinase buffer (50 mM HEPES pH 7.5, 0.01% BRIJ-35, 10 mM MgCl2, 1 mM EGTA), 5 uL of 2×CSNK2A1 (CK2 alpha 1)/Ser/Thr 11 mixture, and 2.5 uL of 4×ATP solution were mixed and agitated for 30 seconds. Then the Kinase Reaction was incubated at room temperature for 60 minutes. The final 10 uL Kinase Reaction consisted of 0.68-25.7 ng CSNK2A1 (CK2 alpha 1) and 2 μM Ser/Thr 11 in 50 mM HEPES pH 7.5, 0.01% BRIJ-35, 10 mM MgCl2, 1 mM EGTA. After the 1 hour Kinase Reaction incubation, 5 uL of a 1:16 dilution of Development Reagent B is added. After 30 second of plate shake, the reaction plate was incubated for another 60 min at room temperature. Then the plate was read on a fluorescence plate reader (CLARIOstar, BMG Labtech, Germany) and data was analyzed using XLfit from IDBS. The dose response curve was curve fit to model number 205 (sigmoidal dose-response model).

Sequence of CSNK2A1 (CK2 alpha 1) (P68400 whole entry): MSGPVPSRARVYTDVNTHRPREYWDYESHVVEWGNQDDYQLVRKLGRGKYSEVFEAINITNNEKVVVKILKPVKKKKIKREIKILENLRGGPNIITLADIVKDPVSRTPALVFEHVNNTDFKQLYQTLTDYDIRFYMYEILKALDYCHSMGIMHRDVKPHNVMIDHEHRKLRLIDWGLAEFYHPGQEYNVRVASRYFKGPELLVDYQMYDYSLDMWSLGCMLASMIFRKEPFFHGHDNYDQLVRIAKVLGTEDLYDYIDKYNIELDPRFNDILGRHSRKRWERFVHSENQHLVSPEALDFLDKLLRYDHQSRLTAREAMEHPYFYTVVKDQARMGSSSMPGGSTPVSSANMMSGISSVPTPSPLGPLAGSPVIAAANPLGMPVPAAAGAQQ
Sequence of HIPK2 (Q9H2X6 whole entry): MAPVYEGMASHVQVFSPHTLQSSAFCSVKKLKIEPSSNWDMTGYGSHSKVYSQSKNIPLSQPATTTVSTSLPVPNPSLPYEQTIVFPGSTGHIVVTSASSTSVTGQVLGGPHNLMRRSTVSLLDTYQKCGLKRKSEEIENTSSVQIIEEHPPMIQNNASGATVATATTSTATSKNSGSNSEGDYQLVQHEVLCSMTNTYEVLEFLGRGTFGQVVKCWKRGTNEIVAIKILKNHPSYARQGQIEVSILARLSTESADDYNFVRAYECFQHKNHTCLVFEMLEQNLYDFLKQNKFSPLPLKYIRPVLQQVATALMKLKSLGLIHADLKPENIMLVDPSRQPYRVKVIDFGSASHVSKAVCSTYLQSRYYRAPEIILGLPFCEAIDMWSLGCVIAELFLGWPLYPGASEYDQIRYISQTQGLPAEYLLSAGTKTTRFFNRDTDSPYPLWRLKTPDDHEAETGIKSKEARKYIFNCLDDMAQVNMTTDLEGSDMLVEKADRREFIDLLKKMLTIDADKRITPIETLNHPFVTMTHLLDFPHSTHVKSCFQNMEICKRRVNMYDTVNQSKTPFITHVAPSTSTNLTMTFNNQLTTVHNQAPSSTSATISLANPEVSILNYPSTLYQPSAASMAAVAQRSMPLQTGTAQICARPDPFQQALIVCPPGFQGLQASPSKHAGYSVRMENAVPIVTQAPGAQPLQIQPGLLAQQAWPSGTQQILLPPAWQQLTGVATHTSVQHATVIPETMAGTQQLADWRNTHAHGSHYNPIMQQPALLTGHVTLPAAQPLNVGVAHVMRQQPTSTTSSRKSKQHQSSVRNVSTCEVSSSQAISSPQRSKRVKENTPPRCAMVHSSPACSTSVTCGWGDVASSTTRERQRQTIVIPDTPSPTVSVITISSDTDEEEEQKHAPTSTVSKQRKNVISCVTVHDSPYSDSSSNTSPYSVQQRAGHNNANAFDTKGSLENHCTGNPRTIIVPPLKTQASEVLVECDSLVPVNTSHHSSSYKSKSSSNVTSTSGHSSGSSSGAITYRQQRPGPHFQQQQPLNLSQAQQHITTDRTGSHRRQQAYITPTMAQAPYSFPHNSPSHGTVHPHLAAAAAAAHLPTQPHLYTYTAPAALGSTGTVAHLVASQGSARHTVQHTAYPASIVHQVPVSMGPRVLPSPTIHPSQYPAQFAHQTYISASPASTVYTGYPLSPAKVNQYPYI

As to `O=C(O)c1ccc2c(c1)cc(Cl)c1ccncc12` [Compound 3, Sodium 5-chlorobenzo[h]isoquinoline-8-carboxylate], the IC50 was 0.3 to 1 µM against HIPK2 and < 0.3 µM on CSNK2A1 (CK2 alpha 1).
In the case of `O=C(O)c1ccc2c(c1)cc(-c1cc[nH]n1)c1ccncc12` [Compound 11, Sodium 5-(1H-pyrazol-3-yl)benzo[h]isoquinoline-8-carboxylate], the half-maximal inhibitory concentration (IC50) at HIPK2 was 1 to 5 µM; on CSNK2A1 (CK2 alpha 1), < 0.3 µM.
For `O=C(O)c1ccc2c(ccc3ccncc32)c1` [Compound 2, Sodium benzo[h]isoquinoline-8-carboxylate] the same measures were 1 to 5 µM and < 0.3 µM.

(Values after US11932606B2, “Anti-cancer/anti-fibrosis compounds” (THE REGENTS OF THE UNIVERSITY OF CALIFORNIA, priority 2017, dated 2024).)
